Results as given in patent US20260001928A1 (CORTERIA PHARMACEUTICALS, priority 2022, published 2026).
pEC50: −log10 of the molar value. *1 amine or outer side, *2 acyl side, *3 side chain or, on linkers, in order; H or OH if unused. Where a SMILES comes first, the peptide text is derived from it. Side-chain parts run from the residue outwards. [ ]: non-standard residue; d: D form. The star is where a group is joined. C16 diacid = O=C(O)CCCCCCCCCCCCCCC(=O)*; γGlu = O=C(O)[C@H](CCC(=O)[*:2])N[*:1]; NMeI = CC[C@H](C)[C@H](NC)C(=O)O; Isovaleryl = CC(C)CC(=O)*; Pentanoyl = CCCCC(=O)*; Propionyl = CCC(=O)*; Butyryl = CCCC(=O)*

Key:
CFR1R receptor = biological target: T1, CFR1R receptor (Homo sapiens, UniProt P34998); assay: Activity at anti-target CFR1R receptor, cAMP assay in CRF1R-overexpression CHO-K1 cells; type: cell-based; conditions: 100% = Sauvagine at 100 nM
T1 construct: host or cells: CHO-K1 (clone 2)
T1 sequence (P34998 24-415): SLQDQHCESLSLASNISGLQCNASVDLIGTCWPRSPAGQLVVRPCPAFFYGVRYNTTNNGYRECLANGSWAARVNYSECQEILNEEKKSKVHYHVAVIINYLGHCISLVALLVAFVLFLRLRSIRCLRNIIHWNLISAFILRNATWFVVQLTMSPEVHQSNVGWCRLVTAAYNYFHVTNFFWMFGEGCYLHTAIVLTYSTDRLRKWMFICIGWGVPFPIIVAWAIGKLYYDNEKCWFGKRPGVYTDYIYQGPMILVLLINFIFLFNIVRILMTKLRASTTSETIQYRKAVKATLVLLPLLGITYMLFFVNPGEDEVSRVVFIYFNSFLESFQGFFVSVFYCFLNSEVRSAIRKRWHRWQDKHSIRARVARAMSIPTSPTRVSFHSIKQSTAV
Procedure: Assessment of activity at anti-target CFR1R receptor is done using the same procedure as the one described for the TeloHEAC cell line. The CRF1R-overexpression CHO-K1 cell line clone 2 was purchased from PerkinElmer. Cells were grown in a 10 cm dish at 37° C./5% CO2 in medium (F12 (Hams)/10% FBS/400 μg/ml G418) to near confluence. At that stage, cells were harvested, resuspended to 10 million/mL in culture medium without G418 and with 10% DMSO. 1 mL vial aliquots were slowly frozen to −80° C. in isopropanol and then transferred in liquid nitrogen for storage. These vials were used to run the experiment following the procedure reported in the previous paragraph, except for the compound used in the control well to define the 100% activation (Sauvagine at 100 nM) and the cell density (final cell density: 4000 cells/well)

human CRF2a receptor = biological target: T2, human CRF2a receptor (Homo sapiens, UniProt Q13324); assay: Activity at human CRF2a receptor, cAMP functional assay in TeloHEAC cells; type: cell-based; conditions: TeloHEAC cells stably expressing human CRF2a receptor, relative to urocortin 2 (100 nM = 100%)
T2 construct: expressed in transfected cells; host or cells: TeloHEAC cells
T2 sequence (Q13324 1-411): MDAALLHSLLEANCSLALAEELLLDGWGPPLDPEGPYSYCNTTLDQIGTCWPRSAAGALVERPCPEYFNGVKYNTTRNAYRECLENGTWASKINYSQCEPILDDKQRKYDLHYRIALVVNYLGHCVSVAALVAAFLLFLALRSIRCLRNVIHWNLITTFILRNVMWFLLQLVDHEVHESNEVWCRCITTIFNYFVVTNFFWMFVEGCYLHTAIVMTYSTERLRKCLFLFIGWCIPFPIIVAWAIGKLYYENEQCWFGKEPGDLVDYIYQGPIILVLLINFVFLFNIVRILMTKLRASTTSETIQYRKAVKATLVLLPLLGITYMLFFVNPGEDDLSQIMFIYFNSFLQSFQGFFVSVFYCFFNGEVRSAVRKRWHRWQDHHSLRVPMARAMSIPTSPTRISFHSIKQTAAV
Procedure: Agonism of compounds for human corticotropin-releasing factor 2a (CRF2a receptor) was determined by a functional assay measuring cAMP modulation upon treatment of TeloHEAC cells stably expressing human CRF2a receptor. Compounds were dissolved at 0.5 mM in 100% DMSO and serially diluted (1:2) in 100% DMSO for 16 dilutions. 20 nL of each dilution was then transferred to 384-well assay plate using an acoustic droplet ejection instrument. 5 μL of compound buffer (1×HBSS; 20 mM HEPES,) were then added to each well. Prior to use, frozen cells were thawed quickly at 37° C. and washed (5 min at 900 rpm) with 20 mL cell buffer (1×HBSS; 20 mM HEPES). Cells were resuspended in cell buffer added with 2 mM IBMX and adjusted to a cell density of […]. 5 μL cells (final dell density: 10000 cells/well) were dispensed in the compound-containing 384-well assay plate and incubated for 30 minutes 37° C. The cAMP level in treated cells was determined using the Cisbio 62AM4PEC kit according to manufacturer's instruction. Finally, plates were incubated for 1 h at room temperature before measuring the fluorescence ratio between 665/620 nm. The percent activity value (E %) was calculated by setting 100 nM of urocortin 2 (UCN2) as 100%. The in vitro potency of the compounds was quantified by determining the concentrations that caused 50% activation of maximal response (EC50) relative to urocortin 2.

Emax (% I) (CFR1R receptor)	pEC50 (human CRF2a receptor)	Compound
50 % I	9.85	CCCCC(=O)N[C@H](C(=O)N[C@@H](CC(C)C)C(=O)N[C@@H](CO)C(=O)N[C@@H](CC(C)C)C(=O)N[C@@H](CC(=O)O)C(=O)N[C@@H](C(=O)N1CCC[C@H]1C(=O)N[C@H](C(=O)N[C@@H](CCCCN)C(=O)N[C@@H](CC(C)C)C(=O)N[C@@H](CCCCNC(=O)CC[C@H](NC(=O)CCCCCCCCCCCCCCC(=O)O)C(=O)O)C(=O)N[C@@H](CCC(N)=O)C(=O)N[C@H](C(=O)N[C@@H](CC(C)C)C(=O)N[C@@H](CC(C)C)C(=O)N[C@@H](CCCCN)C(=O)N[C@@H](CCC(N)=O)C(=O)N[C@@H](CCC(=O)O)C(=O)N[C@@H](CCCNC(=N)N)C(=O)N[C@@H](CCC(N)=O)C(=O)N[C@@H](CCCCN)C(=O)N[C@@H](CCCCN)C(=O)N[C@@H](CCC(N)=O)C(=O)N[C@@H](CCCNC(=N)N)C(=O)N[C@@H](CCC(=O)O)C(=O)N[C@@H](CCC(N)=O)C(=O)N[C@@H](C)C(=O)N[C@@H](CCC(=O)O)C(=O)N[C@@H](CCCCN)C(=O)N[C@@H](CC(N)=O)C(=O)N[C@@H](CCCCN)C(=O)N[C@@H](CCC(N)=O)C(=O)N[C@H](C(=O)N[C@@H](CC(C)C)C(=O)N[C@@H](CCC(=O)O)C(=O)N[C@@H](CCC(N)=O)C(=O)N[C@H](C(N)=O)C(C)C)[C@@H](C)CC)[C@@H](C)CC)[C@@H](C)CC)C(C)C)C(C)C [compound 8] (Pentanoyl-VLSLD[dV]PIKLK([γGlu-C16 diacid])QILLKQERQKKQREQAEKNKQILEQV-NH2)
77 % I	9.80	CC[C@H](C)[C@H](NC(=O)[C@H](CCC(N)=O)NC(=O)[C@H](CCCCNC(=O)CC[C@H](NC(=O)CCCCCCCCCCCCCCC(=O)O)C(=O)O)NC(=O)[C@H](CC(C)C)NC(=O)[C@H](CCCCN)NC(=O)[C@@H](NC(=O)[C@@H]1CCCN1C(=O)[C@H](NC(=O)[C@H](CC(=O)O)NC(=O)[C@H](CC(C)C)NC(=O)[C@H](CO)NC(=O)[C@H](CC(C)C)NC(=O)[C@@H](NC(=O)CC(C)C)C(C)C)C(C)C)[C@@H](C)CC)C(=O)N[C@@H](CC(C)C)C(=O)N[C@@H](CC(C)C)C(=O)N[C@@H](CCCCN)C(=O)N[C@@H](CCC(N)=O)C(=O)N[C@@H](CCC(=O)O)C(=O)N[C@@H](CCCNC(=N)N)C(=O)N[C@@H](CCC(N)=O)C(=O)N[C@@H](CCCCN)C(=O)N[C@@H](CCCCN)C(=O)N[C@@H](CCC(N)=O)C(=O)N[C@@H](CCCNC(=N)N)C(=O)N[C@@H](CCC(=O)O)C(=O)N[C@@H](CCC(N)=O)C(=O)N[C@@H](C)C(=O)N[C@@H](CCC(=O)O)C(=O)N[C@@H](CCCCN)C(=O)N[C@@H](CC(N)=O)C(=O)N[C@@H](CCCCN)C(=O)N[C@@H](CCC(N)=O)C(=O)N[C@H](C(=O)N[C@@H](CC(C)C)C(=O)N[C@@H](CCC(=O)O)C(=O)N[C@@H](CCC(N)=O)C(=O)N[C@H](C(N)=O)C(C)C)[C@@H](C)CC [compound 9] (Isovaleryl-VLSLD[dV]PIKLK([γGlu-C16 diacid])QILLKQERQKKQREQAEKNKQILEQV-NH2)

Continued, compound first:

Compound	Emax (% I) (CFR1R receptor)	pEC50 (human CRF2a receptor)
CC[C@H](C)[C@H](NC)C(=O)N[C@H](C(=O)N[C@@H](CC(C)C)C(=O)N[C@@H](CO)C(=O)N[C@@H](CC(C)C)C(=O)N[C@@H](CC(=O)O)C(=O)N[C@@H](C(=O)N1CCC[C@H]1C(=O)N[C@H](C(=O)N[C@@H](CCCCN)C(=O)N[C@@H](CC(C)C)C(=O)N[C@@H](CCCCNC(=O)CC[C@H](NC(=O)CCCCCCCCCCCCCCC(=O)O)C(=O)O)C(=O)N[C@@H](CCC(N)=O)C(=O)N[C@H](C(=O)N[C@@H](CC(C)C)C(=O)N[C@@H](CC(C)C)C(=O)N[C@@H](CCCCN)C(=O)N[C@@H](CCC(N)=O)C(=O)N[C@@H](CCC(=O)O)C(=O)N[C@@H](CCCNC(=N)N)C(=O)N[C@@H](CCC(N)=O)C(=O)N[C@@H](CCCCN)C(=O)N[C@@H](CCCCN)C(=O)N[C@@H](CCC(N)=O)C(=O)N[C@@H](CCCNC(=N)N)C(=O)N[C@@H](CCC(=O)O)C(=O)N[C@@H](CCC(N)=O)C(=O)N[C@@H](C)C(=O)N[C@@H](CCC(=O)O)C(=O)N[C@@H](CCCCN)C(=O)N[C@@H](CC(N)=O)C(=O)N[C@@H](CCCCN)C(=O)N[C@@H](CCC(N)=O)C(=O)N[C@H](C(=O)N[C@@H](CC(C)C)C(=O)N[C@@H](CCC(=O)O)C(=O)N[C@@H](CCC(N)=O)C(=O)N[C@H](C(N)=O)C(C)C)[C@@H](C)CC)[C@@H](C)CC)[C@@H](C)CC)C(C)C)C(C)C [SEQ ID No. 5, reference compound] (H-[NMeI]VLSLD[dV]PIKLK([γGlu-C16 diacid])QILLKQERQKKQREQAEKNKQILEQV-NH2)	48 % I	10.05
CCC(=O)N[C@H](C(=O)N[C@@H](CC(C)C)C(=O)N[C@@H](CO)C(=O)N[C@@H](CC(C)C)C(=O)N[C@@H](CC(=O)O)C(=O)N[C@@H](C(=O)N1CCC[C@H]1C(=O)N[C@H](C(=O)N[C@@H](CCCCN)C(=O)N[C@@H](CC(C)C)C(=O)N[C@@H](CCCCNC(=O)CC[C@H](NC(=O)CCCCCCCCCCCCCCC(=O)O)C(=O)O)C(=O)N[C@@H](CCC(N)=O)C(=O)N[C@H](C(=O)N[C@@H](CC(C)C)C(=O)N[C@@H](CC(C)C)C(=O)N[C@@H](CCCCN)C(=O)N[C@@H](CCC(N)=O)C(=O)N[C@@H](CCC(=O)O)C(=O)N[C@@H](CCCNC(=N)N)C(=O)N[C@@H](CCC(N)=O)C(=O)N[C@@H](CCCCN)C(=O)N[C@@H](CCCCN)C(=O)N[C@@H](CCC(N)=O)C(=O)N[C@@H](CCCNC(=N)N)C(=O)N[C@@H](CCC(=O)O)C(=O)N[C@@H](CCC(N)=O)C(=O)N[C@@H](C)C(=O)N[C@@H](CCC(=O)O)C(=O)N[C@@H](CCCCN)C(=O)N[C@@H](CC(N)=O)C(=O)N[C@@H](CCCCN)C(=O)N[C@@H](CCC(N)=O)C(=O)N[C@H](C(=O)N[C@@H](CC(C)C)C(=O)N[C@@H](CCC(=O)O)C(=O)N[C@@H](CCC(N)=O)C(=O)N[C@H](C(N)=O)C(C)C)[C@@H](C)CC)[C@@H](C)CC)[C@@H](C)CC)C(C)C)C(C)C [compound 6] (Propionyl-VLSLD[dV]PIKLK([γGlu-C16 diacid])QILLKQERQKKQREQAEKNKQILEQV-NH2)	56 % I	10.05
CCCC(=O)N[C@H](C(=O)N[C@@H](CC(C)C)C(=O)N[C@@H](CO)C(=O)N[C@@H](CC(C)C)C(=O)N[C@@H](CC(=O)O)C(=O)N[C@@H](C(=O)N1CCC[C@H]1C(=O)N[C@H](C(=O)N[C@@H](CCCCN)C(=O)N[C@@H](CC(C)C)C(=O)N[C@@H](CCCCNC(=O)CC[C@H](NC(=O)CCCCCCCCCCCCCCC(=O)O)C(=O)O)C(=O)N[C@@H](CCC(N)=O)C(=O)N[C@H](C(=O)N[C@@H](CC(C)C)C(=O)N[C@@H](CC(C)C)C(=O)N[C@@H](CCCCN)C(=O)N[C@@H](CCC(N)=O)C(=O)N[C@@H](CCC(=O)O)C(=O)N[C@@H](CCCNC(=N)N)C(=O)N[C@@H](CCC(N)=O)C(=O)N[C@@H](CCCCN)C(=O)N[C@@H](CCCCN)C(=O)N[C@@H](CCC(N)=O)C(=O)N[C@@H](CCCNC(=N)N)C(=O)N[C@@H](CCC(=O)O)C(=O)N[C@@H](CCC(N)=O)C(=O)N[C@@H](C)C(=O)N[C@@H](CCC(=O)O)C(=O)N[C@@H](CCCCN)C(=O)N[C@@H](CC(N)=O)C(=O)N[C@@H](CCCCN)C(=O)N[C@@H](CCC(N)=O)C(=O)N[C@H](C(=O)N[C@@H](CC(C)C)C(=O)N[C@@H](CCC(=O)O)C(=O)N[C@@H](CCC(N)=O)C(=O)N[C@H](C(N)=O)C(C)C)[C@@H](C)CC)[C@@H](C)CC)[C@@H](C)CC)C(C)C)C(C)C [compound 7] (Butyryl-VLSLD[dV]PIKLK([γGlu-C16 diacid])QILLKQERQKKQREQAEKNKQILEQV-NH2)	59 % I	10.22
